Patent publication US12084430B2, “Tricyclic urea compounds as JAK2 V617F inhibitors” (Incyte Corporation, priority 2022, dated 2024)
Like-named read-outs stand apart in the source and are kept apart here.

Legend:
[1] = biological target: T1, catalytic domain (JH1, amino acids 826-1132) of human JAK2 (Homo sapiens, UniProt O60674); experiment: JAK2 LanthaScreen JH1 binding assay; details: read-out: JH1 Bind IC50
T1 construct: catalytic domain (JH1, amino acids 826-1132) of human JAK2; FLAG (N); biotin (biotinylated); purchased Carna Biosciences 08-445-20N; host or cells: baculovirus expression system
T1 sequence (O60674 826-1132): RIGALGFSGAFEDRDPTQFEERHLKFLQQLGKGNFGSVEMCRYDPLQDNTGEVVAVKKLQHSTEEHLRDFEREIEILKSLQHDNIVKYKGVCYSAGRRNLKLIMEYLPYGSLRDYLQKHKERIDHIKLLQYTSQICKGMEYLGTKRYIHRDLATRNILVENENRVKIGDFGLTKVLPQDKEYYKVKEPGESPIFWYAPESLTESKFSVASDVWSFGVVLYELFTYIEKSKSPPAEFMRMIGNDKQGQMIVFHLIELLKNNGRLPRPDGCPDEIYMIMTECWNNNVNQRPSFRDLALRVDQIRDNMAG
Experimental: Example A. JAK2 LanthaScreen […] Binding Assay
JAK2 JH1 binding assay utilizes catalytic domain (JH1, amino acids 826-1132) of human JAK2 expressed as N-terminal FLAG-tagged, biotinylated protein in a baculovirus expression system (Carna Biosciences, Product #08-445-20N). The assay was conducted in black 384-well polystyrene plates in a final reaction volume of 20 μL. JAK2 JH1 (1.5 nM) was incubated with compounds (100 nL serially diluted in DMSO) in the presence of 50 nM fluorescent JAK2-JH1 tracer and 0.5 nM Streptavidin-Tb cryptate (Cisbio Part #610SATLB) in assay buffer (50 mM Tris, pH=7.5, 10 mM MgCl2, 0.01% Brij-35, 0.1% BSA, 1 mM EGTA, 5% Glycerol and 5 mM DTT). Non-specific binding was accessed in the presence of 2 mM ATP. After incubation for 2 hours at 25° C., LanthaScreen signals were read on a PHERAstar FS plate reader (BMG LABTECH). Data was analyzed with IDBS XLfit and GraphPad Prism 5.0 software using a four parameter dose response curve to determine IC50 for each compound.

[2] = biological target: T2, pseudo-kinase domain (JH2) of human V617F mutant JAK2 (Homo sapiens, UniProt O60674, F794H/V617F/W659A/W777A); experiment: JAK2 LanthaScreen JH2-V617F binding assay; details: read-out: JH2 V617F Bind IC50
T2 construct: pseudo-kinase domain (JH2, amino-acids 536-812 with 3 surface mutations W659A, W777A, F794H); His (C); purchased BPS Bioscience 79498; host or cells: baculovirus expression system
T2 sequence (O60674 536-812 V617F/W659A/W777A/F794H): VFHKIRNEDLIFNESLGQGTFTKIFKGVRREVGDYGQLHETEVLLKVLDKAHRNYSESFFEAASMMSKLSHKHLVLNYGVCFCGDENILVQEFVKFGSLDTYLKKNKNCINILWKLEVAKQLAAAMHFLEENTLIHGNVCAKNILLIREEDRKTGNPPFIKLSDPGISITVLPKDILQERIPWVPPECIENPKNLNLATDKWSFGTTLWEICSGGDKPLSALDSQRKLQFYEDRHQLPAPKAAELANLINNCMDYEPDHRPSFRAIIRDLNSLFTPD
Experimental: Example B. JAK2 LanthaScreen JH2-V617F Binding Assay
JAK2 JH2-V617F binding assay utilizes pseudo-kinase domain (JH2, amino-acids 536-812 with 3 surface mutations W659A, W777A, F794H) of human V617F mutant JAK2 expressed as C-terminal His-Avi-tagged, biotinylated protein in a baculovirus expression system (BPS Bioscience, Catalog #79498). The assay was conducted in black 384-well polystyrene plates in a final reaction volume of 20 μL. JAK2 JH2-V617F (0.26 nM) was incubated with compounds (100 nL serially diluted in DMSO) in the presence of 50 nM Fluorescent JAK2-JH2 Tracer (MedChem Express Catalog #HY-102055) and 0.25 nM Streptavidin-Tb cryptate (Cisbio Part #610SATLB) in assay buffer (50 mM Tris, pH=7.5, 10 mM MgCl2, 0.01% Brij-35, 0.1% BSA, 1 mM EGTA, 5% Glycerol and 5 mM DTT). Non-specific binding was accessed in the presence of 2 mM ATP. After incubation for 1 hour at 25° C., LanthaScreen signals were read on a PHERAstar FS plate reader (BMG LABTECH). Data was analyzed with IDBS XLfit and GraphPad Prism 5.0 software using a four parameter dose response curve to determine IC50 for each compound.

[3] = biological target: T3, FLT3 (Homo sapiens, UniProt P36888); experiment: FLT3 enzymatic assay; format: biochemical; details: 1 mM ATP
T3 sequence (P36888 27-993): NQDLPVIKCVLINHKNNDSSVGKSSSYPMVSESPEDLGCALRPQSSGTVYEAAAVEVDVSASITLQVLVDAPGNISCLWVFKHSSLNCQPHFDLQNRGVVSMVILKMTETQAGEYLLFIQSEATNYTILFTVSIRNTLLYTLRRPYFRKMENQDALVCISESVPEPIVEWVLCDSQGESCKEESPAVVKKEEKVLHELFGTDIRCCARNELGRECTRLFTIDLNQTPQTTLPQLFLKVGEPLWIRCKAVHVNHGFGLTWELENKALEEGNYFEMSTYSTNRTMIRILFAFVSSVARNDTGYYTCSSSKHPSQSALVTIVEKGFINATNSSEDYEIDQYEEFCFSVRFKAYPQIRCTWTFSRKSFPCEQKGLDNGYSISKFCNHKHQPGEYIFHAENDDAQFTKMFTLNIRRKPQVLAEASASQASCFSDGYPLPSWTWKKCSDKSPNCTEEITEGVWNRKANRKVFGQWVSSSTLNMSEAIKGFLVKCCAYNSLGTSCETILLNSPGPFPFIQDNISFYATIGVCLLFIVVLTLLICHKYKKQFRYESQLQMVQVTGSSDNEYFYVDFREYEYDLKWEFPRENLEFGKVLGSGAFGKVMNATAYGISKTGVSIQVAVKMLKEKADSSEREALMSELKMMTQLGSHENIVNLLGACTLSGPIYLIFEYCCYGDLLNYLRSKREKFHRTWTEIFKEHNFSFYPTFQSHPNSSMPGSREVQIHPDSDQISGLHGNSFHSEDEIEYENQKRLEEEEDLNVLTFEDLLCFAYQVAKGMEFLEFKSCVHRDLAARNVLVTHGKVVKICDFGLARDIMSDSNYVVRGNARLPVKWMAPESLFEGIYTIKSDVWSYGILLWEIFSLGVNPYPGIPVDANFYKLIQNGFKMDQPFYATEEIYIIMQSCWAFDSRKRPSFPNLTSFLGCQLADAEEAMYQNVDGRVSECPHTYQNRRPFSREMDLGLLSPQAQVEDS
How it was run: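 Kinase reaction at room temperature in HEPES 50 mM pH 7.0 with 10 mM MgCl2, 1 mM DTT: 0.011 nM FLT3, 1 mM ATP, 500 nM biotinylated TK substrate, 0.5% DMSO. After 60 min, HTRF read as 665/620 nm ratio; IC50 from fit of percent control activity versus log concentration.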

Structure (SMILES) | IC50 ([1]; Table A) [nM] | IC50 ([1]; Table C) [nM] | IC50 ([2]; Table A) [nM] | IC50 ([2]; Table C) [nM] | IC50 [3] [nM]
[2H]C([2H])([2H])n1cc(-c2[nH]c3ncc4c(c3c2-c2ccc3c(c2)COC3(C)C)n([C@@H]2CC[C@@H](NC(=O)OC)C2)c(=O)n4C([2H])([2H])[2H])c(F)n1 [Example 8, Methyl ((1R,3R)-3-(8-(1,1-dimethyl-1,3-dihydroisobenzofuran-5-yl)-7-(3-fluoro-1-(methyl-d3)-1H-pyrazol-4-yl)-3-(methyl-d3)-2-oxo-3,6-dihydroimidazo[4,5-d]pyrrolo[2,3-b]pyridin-1(2H)-yl)cyclopentyl)carbamate] | > 1000 | > 1000 | ≤ 10 | ≤ 10 | > 2500
[2H]C([2H])([2H])Oc1ccc(-c2c(-c3cn(C([2H])([2H])[2H])nc3F)[nH]c3ncc4c(c23)n([C@@H]2CC[C@@H](NC(=O)OC)C2)c(=O)n4C([2H])([2H])[2H])cc1 [Example 9, Methyl ((1R,3R)-3-(7-(3-fluoro-1-(methyl-d3)-1H-pyrazol-4-yl)-8-(4-(methoxy-d3)phenyl)-3-(methyl-d3)-2-oxo-3,6-dihydroimidazo[4,5-d]pyrrolo[2,3-b]pyridin-1(2H)-yl)cyclopentyl)carbamate] | > 1000 | > 1000 | ≤ 10 | ≤ 10 | 250 to 1250
[2H]C([2H])([2H])n1cc(-c2[nH]c3ncc4c(c3c2-c2ccc(C(C)(C)O)cc2)n([C@@H]2CC[C@@H](NC(=O)OC)C2)c(=O)n4C([2H])([2H])[2H])c(F)n1 [Example 10, Methyl ((1R,3R)-3-(7-(3-fluoro-1-(methyl-d3)-1H-pyrazol-4-yl)-8-(4-(2-hydroxypropan-2-yl)phenyl)-3-(methyl-d3)-2-oxo-3,6-dihydroimidazo[4,5-d]pyrrolo[2,3-b]pyridin-1(2H)-yl)cyclopentyl)carbamate] | > 1000 | > 1000 | ≤ 10 | ≤ 10 | 250 to 1250
[2H]C([2H])([2H])n1cc(-c2[nH]c3ncc4c(c3c2-c2ccc3c(c2)COC3(C)C)n([C@@H]2CC[C@@H](NC(=O)OC)C2)c(=O)n4C)c(F)n1 [Example 11, Methyl ((1R,3R)-3-(8-(1,1-dimethyl-1,3-dihydroisobenzofuran-5-yl)-7-(3-fluoro-1-(methyl-d3)-1H-pyrazol-4-yl)-3-methyl-2-oxo-3,6-dihydroimidazo[4,5-d]pyrrolo[2,3-b]pyridin-1(2H)-yl)cyclopentyl)carbamate] | > 1000 | > 1000 | ≤ 10 | ≤ 10 | > 2500
[2H]C([2H])([2H])n1c(=O)n([C@@H]2CC[C@@H](NC(=O)OC)C2)c2c3c(-c4ccc5c(c4)COC5(C)C)c(-c4cn(CC(F)F)nc4F)[nH]c3ncc21 [Example 12, Methyl ((1R,3R)-3-(7-(1-(2,2-difluoroethyl)-3-fluoro-1H-pyrazol-4-yl)-8-(1,1-dimethyl-1,3-dihydroisobenzofuran-5-yl)-3-(methyl-d3)-2-oxo-3,6-dihydroimidazo[4,5-d]pyrrolo[2,3-b]pyridin-1(2H)-yl)cyclopentyl)carbamate] | > 1000 | > 1000 | ≤ 10 | ≤ 10 | > 2500
[2H]C([2H])([2H])n1cc(-c2[nH]c3ncc4c(c3c2-c2ccc3c(cnn3C(C)C)c2)n([C@@H]2CC[C@@H](NC(=O)OC)C2)c(=O)n4C([2H])([2H])[2H])c(F)n1 [Example 13, Methyl ((1R,3R)-3-(7-(3-fluoro-1-(methyl-d3)-1H-pyrazol-4-yl)-8-(1-isopropyl-1H-indazol-5-yl)-3-(methyl-d3)-2-oxo-3,6-dihydroimidazo[4,5-d]pyrrolo[2,3-b]pyridin-1(2H)-yl)cyclopentyl)carbamate] | > 1000 | > 1000 | ≤ 10 | ≤ 10 | > 2500
[2H]C([2H])([2H])n1cc(-c2[nH]c3ncc4c(c3c2-c2ccc3c(cnn3CC(F)F)c2)n([C@@H]2CC[C@@H](NC(=O)OC)C2)c(=O)n4C([2H])([2H])[2H])c(F)n1 [Example 14, Methyl ((1R,3R)-3-(8-(1-(2,2-difluoroethyl)-1H-indazol-5-yl)-7-(3-fluoro-1-(methyl-d3)-1H-pyrazol-4-yl)-3-(methyl-d3)-2-oxo-3,6-dihydroimidazo[4,5-d]pyrrolo[2,3-b]pyridin-1(2H)-yl)cyclopentyl)carbamate] | > 1000 | > 1000 | ≤ 10 | ≤ 10 | 1250 to 2500
[2H]C([2H])([2H])n1ncc2cc(-c3c(-c4cn(C([2H])([2H])C([2H])([2H])[2H])nc4F)[nH]c4ncc5c(c34)n([C@@H]3CC[C@@H](NC(=O)OC)C3)c(=O)n5C([2H])([2H])[2H])ccc21 [Example 15, Methyl ((1R,3R)-3-(7-(1-(ethyl-d5)-3-fluoro-1H-pyrazol-4-yl)-3-(methyl-d3)-8-(1-(methyl-d3)-1H-indazol-5-yl)-2-oxo-3,6-dihydroimidazo[4,5-d]pyrrolo[2,3-b]pyridin-1(2H)-yl)cyclopentyl)carbamate] | > 1000 | > 1000 | ≤ 10 | ≤ 10 | 250 to 1250
[2H]C([2H])([2H])n1cc(-c2[nH]c3ncc4c(c3c2-c2ccc3c(cnn3C(C)C)c2)n([C@@H]2CC[C@@H](NC(=O)OC)C2)c(=O)n4C)c(F)n1 [Example 16, Methyl ((1R,3R)-3-(7-(3-fluoro-1-(methyl-d3)-1H-pyrazol-4-yl)-8-(1-isopropyl-1H-indazol-5-yl)-3-methyl-2-oxo-3,6-dihydroimidazo[4,5-d]pyrrolo[2,3-b]pyridin-1(2H)-yl)cyclopentyl)carbamate] | > 1000 | > 1000 | ≤ 10 | ≤ 10 | 1250 to 2500
